Results published in US20200281845A1, “COMPOSITIONS COMPRISING LESPEDEZA PLANT EXTRACT” (Clariant International Ltd., priority 2017, published 2020).

System: Per2pro-LUC
Assay: Improvement of circadian clock activity reduced by TCDD, Per2pro-LUC in HaCaT cells
Format: cell-based, human
Conditions: TCDD 1.5 nM for 4 hours, compared to cells treated with solvent toluene alone
Description: The improvement effects of the extracts of Lespedeza bicolor Turcz, Lespedeza cuneata G. Don, Lespedeza maximowiczii C. K. Schneid and Lespedeza capitata were measured in skin circadian clock activity reduced by TCDD (2,3,7,8-Tetrachlorodibenzo-p-dioxin) which is an environmental hormone dioxin. HaCaT cells containing Per2pro-LUC were inoculated in a 96-well plate containing Hygromycine B at 200 ug/ml and 10% FBS in DMEM medium (1.4×10^4 cells/well), and cultured in a 5% CO2 incubator at 37° C. for 48 hours. After 48 hours, 50 ug/ml of the extracts of Lespedeza bicolor Turcz, Lespedeza cuneata G. Don and Lespedeza maximowiczii C. K. Schneid and Lespedeza capitata were each treated for 24 hours while being treated with TCDD (2,3,7,8-tetrachlorodibenzo-p-dioxin) 1.5 nM for 4 hours simultaneously, and then transferred to the medium for measuring Luciferase (DMEM containing HEPES 10 mM, Luciferin 1 mM, Hygromycine B 200 ug/ml, 10% FBS). […] K. Schneid and Lespedeza capitata in alleviating reduced biorhythm by environmental hormones. As shown here, cells treated with TCDD had 30% reduced absolute value for Per2pro-LUC rhythm, compared to cells that were treated with the solvent toluene alone. In contrast to this, cells treated with the extracts of Lespedeza bicolor Turcz, Lespedeza cuneata G. Don, Lespedeza maximowiczii C.

Clc1cc2c(cc1Cl)Oc1cc(Cl)c(Cl)cc1O2 [TCDD, 2,3,7,8-Tetrachlorodibenzo-p-dioxin]
reduced absolute value for Per2pro-LUC rhythm: 30%
